Assay results reported in US7572920B2, “Benzimidazole derivative and use as a II receptor antagonist” (Takeda Pharmaceutical Company Limited, priority 2004, dated 2009).
Marks after values point to notes of the source that are not given here.

Assays:
[1] = tested on: angiotensin II induced pressor response; experiment: Inhibition of angiotensin II induced pressor response in rats; assay type: in vivo, Male Sprague-Dawley rats; details: AII 100 ng/kg i.v., test compound p.o. at dose equimolar to compound A (0.10-0.14 mg/kg), in 0.5% methylcellulose, mean±SEM
Description: Inhibitory Effects of Compounds of the Present Invention Against Angiotensin II Induced Pressor Response in Rats
Male Sprague-Dawley rats (9-11 weeks old, CLEA Japan, Inc.) were anesthetized with pentobarbital (50 mg/kg, i.p.) and the femoral artery and vein were isolated and cannulated with polyethylene tubes filled with saline containing heparin (200 U/mL). The catheters were subcutaneously inserted to a site in the back of the neck and fixed. After recovery period, the rat was subjected to the experiment. The arterial catheter was connected to a pressure transducer coupled to a blood pressure monitor amplifier (2238, NEC San-ei Instruments) and the pressure was recorded on a recorder (RECTI-HORIZ 8K, NEC San-ei Instruments). After establishing angiotensin II (AII, 100 ng/kg, i.v.) induced pressor responses, a test compound at a dose corresponding to an equimolar amount of compound A (2-ethoxy-1-{[2′-(5-oxo-4,5-dihydro-1,2,4-oxadiazol-3-yl)biphenyl-4-yl]methyl}-1H-benzimidazole-7-carboxylic acid) was administered. AII was administered 24 hours later and increase in the blood pressure was measured, based on which the inhibition rate from the value before the administration was calculated. All compounds were suspended in 0.5% methylcellulose and orally administered at a volume of 2 mL/kg.
The results are shown in mean±SEM (Table 1). The significance between the group administered with the compound obtained in Example 5 and the other groups was analyzed using Student's t-test ([…]).

[2] = tested on: angiotensin II induced pressor response; experiment: Inhibition of angiotensin II induced pressor response in dogs; assay type: in vivo, male beagles; details: fasting, AII 100 ng/kg i.v., test compound p.o. at dose equimolar to compound A 1 mg/kg, in 0.5% methylcellulose, mean±SEM
Description: Inhibitory Effects of the Compounds of the Present Invention Against Angiotensin II Induced Pressor Response in Dogs
For the experiment, male beagles (body weight 12.0-14.7 kg, KITAYAMA LABES, CO., LTD.) were used. They were anesthetized with sodium pentobarbital (50 mg/kg, i.p.), and a tracheal tube was inserted for management of the airway. The femoral region and the back of the neck were shaved, and a disinfectant (Isodine solution, MEIJI SEIKA KAISHA, LTD.) was applied. The dog was fixed at the dorsal position and the right femoral region was incised. A mirror catheter (5 F, MILLER INDUSTRIES) was inserted and placed in the femoral artery and a polyurethane tube in the femoral vein. The catheter and tube were passed through subcutaneously and fixed at the back region. The incised region was sutured thereafter and penicillin G potassium (MEIJI SEIKA KAISHA, LTD., 40000 units) was intramuscularly administered to prevent infection. Beginning from the next day, penicillin G potassium (40000 units) was administered once a day for 3 days. After 3 days for recovery, the dog was subjected to the experiment.
During the experiment, the dog was placed in a small metabolic cage. For measurement, the mirror catheter inserted in the femoral artery was connected to a transducer unit (MILLER INDUSTRIES), and the systemic blood pressure (average blood pressure) was recorded on a recorder (RECTI-HORIZ 8 K, NEC San-ei Instruments) through a DC amplifier (N4777, NEC San-ei Instruments) and a blood pressure monitor amplifier (N4441, NEC San-ei Instruments). The polyurethane tube inserted in the femoral vein was fixed outside the cage and used for administration of AII (PEPTIDE INSTITUTE, INC.). The experiment was conducted under fasting and AII (100 ng/kg, i.v.) was administered 3 or 4 times before administration of a test compound to confirm stabilization of the vasopressor response. A dose of the test compound corresponding to an equimolar amount of compound A was suspended in 0.5% methylcellulose and orally administered at a volume of 2 mL/kg. After drug administration, AII was administered at each time point of measurement and increase in the blood pressure was measured, based on which the inhibition rate from the value before the administration was calculated.
The results are shown in mean±SEM (Table 2). The significance between the group administered with the compound obtained in Example 5 and the group administered with compound A was analyzed using Student's t-test with Bonferroni correction ([…]).

CCOc1nc2cccc(C(=O)OC(C)OC(=O)OC3CCCCC3)c2n1Cc1ccc(-c2ccccc2-c2noc(=O)[nH]2)cc1 (stereo not shown) [compound C, 1-(cyclohexyloxycarbonyloxy)ethyl 2-ethoxy-1-{[2′-(5-oxo-4,5-dihydro-1,2,4-oxadiazol-3-yl)biphenyl-4-yl]methyl}-1H-benzimidazole-7-carboxylate]
inhibition rate of AII induced increase in blood pressure, 24 hrs after administration [1]: 9.3 ± 8.6*

CCOc1nc2cccc(C(=O)OCc3oc(=O)oc3C)c2n1Cc1ccc(-c2ccccc2-c2noc(=O)[nH]2)cc1.[K] [Example 5, (5-methyl-2-oxo-1,3-dioxol-4-yl)methyl 2-ethoxy-1-{[2′-(5-oxo-4,5-dihydro-1,2,4-oxadiazol-3-yl)biphenyl-4-yl]methyl}-1H-benzimidazole-7-carboxylate potassium salt]
inhibition rate of AII induced increase in blood pressure, 24 hrs after administration [1]: 32.7 ± 4.6 | inhibition rate of AII induced increase in blood pressure, 10 hrs after administration [2]: 55.6 ± 3.4** | inhibition rate of AII induced increase in blood pressure, 24 hrs after administration [2]: 40.3 ± 5.1*

CCOc1nc2cccc(C(=O)OCOC(C)=O)c2n1Cc1ccc(-c2ccccc2-c2noc(=O)[nH]2)cc1 [compound D, acetoxymethyl 2-ethoxy-1-{[2′-(5-oxo-4,5-dihydro-1,2,4-oxadiazol-3-yl)biphenyl-4-yl]methyl}-1H-benzimidazole-7-carboxylate]
inhibition rate of AII induced increase in blood pressure, 24 hrs after administration [1]: 10.9 ± 5.6*

CCOc1nc2cccc(C(=O)O)c2n1Cc1ccc(-c2ccccc2-c2noc(=O)[nH]2)cc1 [compound A, 2-ethoxy-1-{[2′-(5-oxo-4,5-dihydro-1,2,4-oxadiazol-3-yl)biphenyl-4-yl]methyl}-1H-benzimidazole-7-carboxylic acid]
inhibition rate of AII induced increase in blood pressure, 10 hrs after administration [2]: 27.0 ± 3.2 | inhibition rate of AII induced increase in blood pressure, 24 hrs after administration [2]: 19.6 ± 3.7

CCOc1nc2cccc(C(=O)OCc3oc(=O)oc3C)c2n1Cc1ccc(-c2ccccc2-c2noc(=O)[nH]2)cc1 [Example 2, (5-methyl-2-oxo-1,3-dioxol-4-yl)methyl 2-ethoxy-1-{[2′-(5-oxo-4,5-dihydro-1,2,4-oxadiazol-3-yl)biphenyl-4-yl]methyl}-1H-benzimidazole-7-carboxylate]
inhibition rate of AII induced increase in blood pressure, 10 hrs after administration [2]: 35.9 ± 4.8 | inhibition rate of AII induced increase in blood pressure, 24 hrs after administration [2]: 28.6 ± 4.1

CCOc1nc2cccc(C(=O)OC)c2n1Cc1ccc(-c2ccccc2-c2noc(=O)[nH]2)cc1 [compound B, methyl 2-ethoxy-1-{[2′-(5-oxo-4,5-dihydro-1,2,4-oxadiazol-3-yl)biphenyl-4-yl]methyl}-1H-benzimidazole-7-carboxylate]
inhibition rate of AII induced increase in blood pressure, 24 hrs after administration [1]: 0.8 ± 4.9**
